Numbers after ± are expanded uncertainties.
Experiment: mn = molality of the nth substance listed, in mol/kg
Conditions: 298.15 K, 101 kPa, Liquid, Vibrating tube method

mass density (m2 = 0.003931): 1316.39 ± 10 kg/m3
mass density (m2 = 0.1352): 1316.68 ± 10 kg/m3
Structure (SMILES): ClCCl [dichloromethane] + CCOS(=O)(=O)[O-].CCn1cc[n+](C)c1
